Laboratory results taken from ChEMBL document CHEMBL1125530, “1,4-Dihydropyridines as antagonists of platelet activating factor. 1. Synthesis and structure-activity relationships of 2-(4-heterocyclyl)phenyl derivatives” (J Med Chem, 1992).

Target: Platelet-activating factor receptor (Mus musculus) (UniProt Q62035)
Experiment: Ability to protect mice from lethal effects of an injection of PAF in vivo.
Type: functional, organism-based
Conditions: Mus sp.

Sequence of Platelet-activating factor receptor (Mus musculus) (Q62035 whole entry): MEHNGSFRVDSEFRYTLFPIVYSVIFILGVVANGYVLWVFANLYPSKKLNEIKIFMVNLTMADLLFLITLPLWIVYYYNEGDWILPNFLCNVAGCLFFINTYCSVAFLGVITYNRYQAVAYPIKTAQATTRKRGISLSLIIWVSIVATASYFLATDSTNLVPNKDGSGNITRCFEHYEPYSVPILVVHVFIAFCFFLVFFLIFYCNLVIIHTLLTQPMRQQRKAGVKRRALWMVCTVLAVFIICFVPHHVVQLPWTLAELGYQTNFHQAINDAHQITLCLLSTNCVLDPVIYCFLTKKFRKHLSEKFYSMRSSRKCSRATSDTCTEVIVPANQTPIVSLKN

SMILES	ED50
CCOC(=O)C1=C(c2ccc(-n3c(C)nc4cnccc43)cc2)N=C(C)/C(=C(/O)OCCOC)C1c1ccccc1Cl (stereo not given)	0.16 mg/kg
CCOC(=O)C1=C(c2ccc(-c3cccnc3C)cc2)NC(C)=C(C(=O)Nc2ccccn2)C1c1ccccc1Cl (stereo not given)	3.7 mg/kg
CCOC(=O)C1=C(c2ccc(-n3c(C)nc4cnccc43)cc2)NC(C)=C(C(=O)NC(C)(C)C)C1c1ccccc1Cl (stereo not given)	2.1 mg/kg
CCOC(=O)C1=C(c2ccc(-n3c(C)nc4cnccc43)cc2)N=C(C)/C(=C(/O)OC(C)(C)C)C1c1ccccc1Cl (stereo not given)	2 mg/kg
CCOC(=O)C1=C(c2ccc(-n3c(C)nc4cnccc43)cc2)NC(C)=C(C(=O)Nc2ccccn2)C1c1ccccn1 (stereo not given)	4.1 mg/kg
CCOC(=O)C1=C(c2ccc(-n3c(C)nc4cnccc43)cc2)NC(C)=C(C(=O)O)C1c1ccccc1Cl (stereo not given)	4.7 mg/kg
CCOC(=O)C1=C(c2ccc(-n3c(C)nnc3C)cc2)NC(C)=C(C(=O)Nc2ccccn2)C1c1ccccc1Cl (stereo not given)	34 mg/kg
CCOC(=O)C1=C(c2ccc(-n3c(C)nc4cnccc43)cc2)N=C(C)/C(=C(/O)OC)C1c1ccccc1Cl (stereo not given)	1.5 mg/kg
CCOC(=O)C1=C(c2ccc(-n3c(C)nc4cnccc43)cc2)NC(C)=C(C(=O)Nc2ccccn2)C1c1cccnc1 (stereo not given)	16 mg/kg
CCOC(=O)C1=C(c2ccc(-n3c(C)nc4cnccc43)cc2)NC(C)=C(C(=O)Nc2ccccn2)C1c1csc2ccccc12 (stereo not given)	0.6 mg/kg
CCOC(=O)C1=C(c2ccc(-n3c(C(F)(F)F)nc4cnccc43)cc2)NC(C)=C(C(=O)Nc2ccccn2)C1c1ccccc1Cl (stereo not given)	25 mg/kg
CCOC(=O)C1=C(c2ccc(-n3ccnc3C)cc2)NC(C)=C(C(=O)Nc2ccccn2)C1c1ccccc1Cl (stereo not given)	22 mg/kg
CCOC(=O)C1=C(c2ccc(-n3c(C)nc4cnccc43)cc2)N=C(C)/C(=C(/O)OC2CCCCC2)C1c1ccccc1Cl (stereo not given)	4.7 mg/kg
CCOC(=O)C1=C(c2ccc(-c3sc(C)nc3C)cc2)NC(C)=C(C(=O)Nc2ccccn2)C1c1ccccc1Cl (stereo not given)	7.4 mg/kg
CCOC(=O)C1=C(c2ccc(-n3c(C)nc4cnccc43)cc2)N=C(C)/C(=C(/O)OCc2ccccc2)C1c1ccccc1Cl (stereo not given)	2 mg/kg
CCOC(=O)C1=C(c2ccc(-n3c(C)nc4cnccc43)cc2)NC(C)=C(C(=O)Nc2ccccn2)C1c1ccc(C#N)cc1 (stereo not given)	1.2 mg/kg
CCOC(=O)C1=C(c2ccc(-n3c(C)nc(C)c3C)cc2)NC(C)=C(C(=O)Nc2ccccn2)C1c1ccccc1Cl (stereo not given)	10.5 mg/kg
CCOC(=O)C1=C(c2ccc(-n3c(C)nc4c(C)nc(C)cc43)cc2)NC(C)=C(C(=O)Nc2ccccn2)C1c1ccccc1Cl (stereo not given)	0.3 mg/kg
CCOC(=O)C1=C(c2ccc(-n3c(C)nc4cnccc43)cc2)NC(C)=C(C(=O)Nc2ccccn2)C1c1ccccc1Cl (stereo not given)	0.26 mg/kg
CCOC(=O)C1=C(c2ccc(-n3c(C)nc4cnccc43)cc2)NC(C)=C(C(=O)Nc2ccccn2)C1c1cccnc1Cl (stereo not given)	13 mg/kg
CCOC(=O)C1=C(c2ccc(-n3c(C)nc4cnccc43)cc2)NC(C)=C(C(N)=O)C1c1ccccc1Cl (stereo not given)	1 mg/kg
CCOC(=O)C1=C(c2ccc(-n3c(CC)nc4cnccc43)cc2)NC(C)=C(C(=O)Nc2ccccn2)C1c1ccccc1Cl (stereo not given)	10.5 mg/kg
CCOC(=O)C1=C(c2ccc(-c3c(C)nc4sccn34)cc2)NC(C)=C(C(=O)Nc2ccccn2)C1c1ccccc1Cl (stereo not given)	5.4 mg/kg
CCOC(=O)C1=C(c2ccc(-n3c(C)nc4cnccc43)cc2)NC(C)=C(C(=O)Nc2ccccn2)C1c1cccc2c1OCO2 (stereo not given)	0.5 mg/kg
CCOC(=O)C1=C(c2ccc(-n3c(C)nc4cccnc43)cc2)NC(C)=C(C(=O)Nc2ccccn2)C1c1ccccc1Cl (stereo not given)	23 mg/kg
CCOC(=O)C1=C(c2ccc(-n3c(C)nc4ccncc43)cc2)NC(C)=C(C(=O)Nc2ccccn2)C1c1ccccc1Cl (stereo not given)	16 mg/kg
CCOC(=O)C1=C(c2ccc(-n3cc(C)nc3C)cc2)NC(C)=C(C(=O)Nc2ccccn2)C1c1ccccc1Cl (stereo not given)	3 mg/kg
CCOC(=O)C1=C(c2ccc(-n3c(C)nc4cnccc43)cc2)NC(C)=C(C(=O)Nc2ccccn2)C1c1ccccc1OC(F)(F)F (stereo not given)	0.2 mg/kg
CCOC(=O)C1=C(c2ccc(-c3c(C)nc4ccccn34)cc2)NC(C)=C(C(=O)Nc2ccccn2)C1c1ccccc1Cl (stereo not given)	92 mg/kg
Cc1nnc2n1-c1sc(CCC(=O)N3CCOCC3)cc1C(c1ccccc1Cl)=NC2	2.03 mg/kg
